Experimental data taken from ChEMBL document CHEMBL1153788, “Bioactive diterpene derivatives from the marine sponge Spongionella sp” (J Nat Prod, 2009).

Key:
[1] = tested on: PBMC; assay: Cytotoxicity against human PBMC cells assessed as decrease in luminescence after 24 hrs by luminescent cell viability assay; type: cell-based
[2] = tested on: K562; assay: Cytotoxicity against human K562 cells assessed as decrease in luminescence after 24 hrs by luminescent cell viability assay; type: functional, cell-based; conditions: K562, 24 h

Row | Structure (SMILES) | IC50 [1] | IC50 [2]
1 | CC(=O)O[C@H]1O[C@H]2O[C@H]3OC(=O)/C(=C\C4CCCC(C)(C)C4)[C@H]3[C@H]2[C@@H]1OC(C)=O (stereo partly specified) [GRACILIN K] | 9 µM | 8.5 µM
2 | CC(=O)O[C@H]1O[C@H]2O[C@H]3OC(=O)/C(=C\CC4(OC(C)=O)CCCC(C)(C)C4)[C@H]3[C@H]2[C@@H]1OC(C)=O (stereo partly specified) [GRACILIN J] | 30 µM | 15 µM
3 | CC(=O)O[C@@H]1O[C@H]2OC(=O)[C@H](C)C3=C([C@@]4(C)CCCC(C)(C)C4)CC[C@@H]1[C@H]32 | 4.5 µM | 2.3 µM
